Laboratory results from ChEMBL document CHEMBL3785084, “Rational modification of the lead molecule: Enhancement in the anticancer and dihydrofolate reductase inhibitory activity” (Bioorg Med Chem Lett, 2016).

Legend:
[1] = cells; conditions: Homo sapiens, MOLT-4, 48 h; for CC50: read-out: LC50
Description: Cytotoxicity against human MOLT4 cells after 48 hrs by sulforhodamine B assay

[2] = cells; conditions: Homo sapiens, RPMI-8226, 48 h; for CC50: read-out: LC50
Description: Cytotoxicity against human RPMI8226 cells after 48 hrs by sulforhodamine B assay

[3] = test system: MCF7; experiment: cells; conditions: Homo sapiens, MCF7, 48 h
Description: Cytotoxicity against human MCF7 cells after 48 hrs by sulforhodamine B assay

[4] = cells; conditions: Homo sapiens, OVCAR-3, 48 h; for CC50: read-out: LC50
Description: Cytotoxicity against human OVCAR3 cells after 48 hrs by sulforhodamine B assay

[5] = cells; conditions: Homo sapiens, HCT-116, 48 h; for CC50: read-out: LC50
Description: Cytotoxicity against human HCT116 cells after 48 hrs by sulforhodamine B assay

[6] = cells; conditions: Homo sapiens, SF-295, 48 h; for CC50: read-out: LC50
Description: Cytotoxicity against human SF295 cells after 48 hrs by sulforhodamine B assay

[7] = test system: T47D; experiment: cells; conditions: Homo sapiens, 48 h
Description: Cytotoxicity against human T47D cells after 48 hrs by sulforhodamine B assay

[8] = Cytotoxicity against human NCI-ADR-RES cells after 48 hrs by sulforhodamine B assay; type: functional; conditions: for CC50: read-out: LC50 (the source's name)
[9] = Cytotoxicity against human Hs 578T cells after 48 hrs by sulforhodamine B assay; type: functional; conditions: for CC50: read-out: LC50 (the source's name)
[10] = cells; conditions: Homo sapiens, UACC-257, 48 h; for CC50: read-out: LC50
Description: Cytotoxicity against human UACC257 cells after 48 hrs by sulforhodamine B assay

[11] = test system: CCRF-CEM; experiment: cells; conditions: Homo sapiens, 48 h; for CC50: read-out: LC50
Description: Cytotoxicity against human CCRF-CEM cells after 48 hrs by sulforhodamine B assay

[12] = cells; conditions: Homo sapiens, HOP-92, 48 h; for CC50: read-out: LC50
Description: Cytotoxicity against human HOP92 cells after 48 hrs by sulforhodamine B assay

[13] = test system: SN12C; experiment: cells; conditions: Homo sapiens, 48 h; for CC50: read-out: LC50
Description: Cytotoxicity against human SN12C cells after 48 hrs by sulforhodamine B assay

[14] = cells; conditions: Homo sapiens, SF-268, 48 h; for CC50: read-out: LC50
Description: Cytotoxicity against human SF268 cells after 48 hrs by sulforhodamine B assay

[15] = test system: MDA-MB-468; experiment: cells; conditions: Homo sapiens, MDA-MB-468, 48 h; for CC50: read-out: LC50
Description: Cytotoxicity against human MDA-MB-468 cells after 48 hrs by sulforhodamine B assay

[16] = test system: MDA-MB-231; experiment: cells; conditions: Homo sapiens, MDA-MB-231, 48 h; for CC50: read-out: LC50
Description: Cytotoxicity against human MDA-MB-231 cells after 48 hrs by sulforhodamine B assay

[17] = cells; conditions: Homo sapiens, OVCAR-4, 48 h
Description: Cytotoxicity against human OVCAR4 cells after 48 hrs by sulforhodamine B assay

[18] = cells; conditions: Homo sapiens, SK-OV-3, 48 h; for CC50: read-out: LC50
Description: Cytotoxicity against human SKOV3 cells after 48 hrs by sulforhodamine B assay

[19] = test system: U-251; experiment: cells; conditions: Homo sapiens, U-251, 48 h; for CC50: read-out: LC50
Description: Cytotoxicity against human U251 cells after 48 hrs by sulforhodamine B assay

[20] = cells; conditions: Homo sapiens, COLO 205, 48 h
Description: Cytotoxicity against human COLO205 cells after 48 hrs by sulforhodamine B assay

[21] = cells; conditions: Homo sapiens, UO-31, 48 h; for CC50: read-out: LC50
Description: Cytotoxicity against human UO31 cells after 48 hrs by sulforhodamine B assay

[22] = test system: EKVX; experiment: cells; conditions: Homo sapiens, 48 h; for CC50: read-out: LC50
Description: Cytotoxicity against human EKVX cells after 48 hrs by sulforhodamine B assay

[23] = cells; conditions: Homo sapiens, RXF 393, 48 h; for CC50: read-out: LC50
Description: Cytotoxicity against human RXF393 cells after 48 hrs by sulforhodamine B assay

[24] = test system: M14; experiment: cells; conditions: Homo sapiens, M14, 48 h; for CC50: read-out: LC50
Description: Cytotoxicity against human M14 cells after 48 hrs by sulforhodamine B assay

[25] = cells; conditions: Homo sapiens, SW-620, 48 h; for CC50: read-out: LC50
Description: Cytotoxicity against human SW620 cells after 48 hrs by sulforhodamine B assay

[26] = test system: 786-0; experiment: cells; conditions: Homo sapiens, 786-0, 48 h; for CC50: read-out: LC50
Description: Cytotoxicity against human 786-0 cells after 48 hrs by sulforhodamine B assay

[27] = cells; conditions: Homo sapiens, TK-10, 48 h; for CC50: read-out: LC50
Description: Cytotoxicity against human TK10 cells after 48 hrs by sulforhodamine B assay

[28] = test system: K562; experiment: cells; conditions: Homo sapiens, K562, 48 h; for CC50: read-out: LC50
Description: Cytotoxicity against human K562 cells after 48 hrs by sulforhodamine B assay

[29] = cells; conditions: Homo sapiens, HL-60, 48 h; for CC50: read-out: LC50
Description: Cytotoxicity against human HL-60(TB) cells after 48 hrs by sulforhodamine B assay

[30] = test system: SK-MEL-5; experiment: cells; conditions: Homo sapiens, SK-MEL-5, 48 h; for CC50: read-out: LC50
Description: Cytotoxicity against human SK-MEL-5 cells after 48 hrs by sulforhodamine B assay

[31] = test system: ACHN; experiment: cells; conditions: Homo sapiens, 48 h; for CC50: read-out: LC50
Description: Cytotoxicity against human ACHN cells after 48 hrs by sulforhodamine B assay

[32] = cells; conditions: Homo sapiens, CAKI-1, 48 h; for CC50: read-out: LC50
Description: Cytotoxicity against human Caki1 cells after 48 hrs by sulforhodamine B assay

[33] = test system: Malme-3M; experiment: cells; conditions: Homo sapiens, 48 h; for CC50: read-out: LC50
Description: Cytotoxicity against human MALME-3M cells after 48 hrs by sulforhodamine B assay

[34] = test system: NCI-H23; experiment: cells; conditions: Homo sapiens, NCI-H23, 48 h; for CC50: read-out: LC50
Description: Cytotoxicity against human NCI-H23 cells after 48 hrs by sulforhodamine B assay

[35] = cells; conditions: Homo sapiens, DU-145, 48 h; for CC50: read-out: LC50
Description: Cytotoxicity against human DU145 cells after 48 hrs by sulforhodamine B assay

[36] = cells; conditions: Homo sapiens, OVCAR-8, 48 h
Description: Cytotoxicity against human OVCAR8 cells after 48 hrs by sulforhodamine B assay

[37] = cells; conditions: Homo sapiens, IGROV-1, 48 h; for CC50: read-out: LC50
Description: Cytotoxicity against human IGROV1 cells after 48 hrs by sulforhodamine B assay

## O=C1Nc2ccccc2/C1=C/c1cn(CC(O)Cn2cc(/C=C3\C(=O)Nc4ccccc43)c3ccccc32)c2ccccc12 (configuration not stated)
[1]
  GI50: 2.5 µM
  TGI: 7.4 µM
  CC50: > 100 µM
[2]
  GI50: 2.1 µM
  TGI: 5.4 µM
  CC50: > 100 µM
[3]
  GI50: 0.45 µM
  TGI: 1.8 µM
[4]
  GI50: 1.6 µM
  TGI: 3.3 µM
  CC50: 6.6 µM
[5]
  GI50: 1.6 µM
  TGI: 4.1 µM
  CC50: 12.5 µM
[6]
  GI50: 1.6 µM
  TGI: 3.2 µM
  CC50: 6.4 µM
[7]
  GI50: 1.6 µM
  TGI: 3.8 µM
[8]
  GI50: 12 µM
  TGI: 54.5 µM
  CC50: > 100 µM
[9]
  GI50: 2.4 µM
  TGI: 7.8 µM
  CC50: > 100 µM
[10]
  GI50: 2.3 µM
  TGI: 4.4 µM
  CC50: 8.3 µM
[11]
  GI50: 2.8 µM
  TGI: 13.4 µM
  CC50: > 100 µM
[12]
  GI50: 1.8 µM
  TGI: 4.1 µM
  CC50: 9.5 µM
[13]
  GI50: 1.5 µM
  TGI: 3.1 µM
  CC50: 6.5 µM
[14]
  GI50: 1.7 µM
  TGI: 3.9 µM
  CC50: 8.7 µM
[15]
  GI50: 2.03 µM
  TGI: 3.7 µM
  CC50: 6.9 µM
[16]
  GI50: 1.2 µM
  TGI: 2.7 µM
  CC50: 5.7 µM
[17]
  GI50: 1.8 µM
  TGI: 3.9 µM
[18]
  GI50: 1.6 µM
  TGI: 3.6 µM
  CC50: 8.1 µM
[19]
  GI50: 1.5 µM
  TGI: 2.9 µM
  CC50: 5.6 µM
[20]
  GI50: 1.6 µM
  TGI: 3.6 µM
[21]
  GI50: 1.2 µM
  TGI: 2.9 µM
  CC50: 6.7 µM
[22]
  GI50: 1.8 µM
  TGI: 3.7 µM
  CC50: 7.8 µM
[23]
  GI50: 2.04 µM
  TGI: 3.7 µM
  CC50: 6.9 µM
[24]
  GI50: 1.3 µM
  TGI: 2.8 µM
  CC50: 6.02 µM
[25]
  GI50: 1.3 µM
  TGI: 3.4 µM
  CC50: 9.04 µM
[26]
  GI50: 1.6 µM
  TGI: 3.2 µM
  CC50: 6.1 µM
[27]
  GI50: 2.7 µM
  TGI: 5.4 µM
  CC50: 14.4 µM
[28]
  GI50: 1.2 µM
  TGI: 3.5 µM
  CC50: > 100 µM
[29]
  GI50: 2.9 µM
  TGI: 10.9 µM
  CC50: 57.5 µM
[30]
  GI50: 1.9 µM
  TGI: 3.8 µM
  CC50: 7.3 µM
[31]
  GI50: 1.6 µM
  TGI: 3.9 µM
  CC50: 9.3 µM
[32]
  GI50: 1.6 µM
  TGI: 3.3 µM
  CC50: 7.1 µM
[33]
  GI50: 1.5 µM
  TGI: 3.2 µM
  CC50: 7.1 µM
[34]
  GI50: 1.5 µM
  TGI: 3.3 µM
  CC50: 7.2 µM
[35]
  GI50: 1.5 µM
  TGI: 2.9 µM
  CC50: 5.6 µM
[36]
  GI50: 2.3 µM
  TGI: 4.7 µM
[37]
  GI50: 0.47 µM
  TGI: 1.9 µM
  CC50: 5.3 µM

## COc1cc(/C=C2\C(=O)Nc3ccccc32)cc(OC)c1O
[1]
  GI50: 3.8 µM
  TGI: 93.3 µM
  CC50: > 100 µM
[2]
  GI50: 5.5 µM
  TGI: 27.5 µM
  CC50: > 100 µM
[3]
  GI50: 0.7 µM
  TGI: 15.1 µM
[3]; read-out: LC50
  CC50: > 100 µM
[4]
  GI50: 2 µM
  TGI: 5 µM
  CC50: 22.3 µM
[5]
  GI50: 3.3 µM
  TGI: 13.4 µM
  CC50: 37.1 µM
[6]
  GI50: 3 µM
  TGI: 30.9 µM
  CC50: > 100 µM
[7]
  GI50: 3.5 µM
  TGI: 85.1 µM
[7]; read-out: LC50
  CC50: > 100 µM
[8]
  GI50: 2.5 µM
  TGI: 7.5 µM
  CC50: > 100 µM
[9]
  GI50: 1.8 µM
  TGI: 6.1 µM
  CC50: > 100 µM
[10]
  GI50: 1.8 µM
  TGI: 18.6 µM
  CC50: 67.6 µM
[11]
  GI50: 5.1 µM
  TGI: > 100 µM
  CC50: > 100 µM
[12]
  GI50: 4.2 µM
  TGI: 48.9 µM
  CC50: > 100 µM
[13]
  GI50: 3.6 µM
  TGI: 23.4 µM
  CC50: > 100 µM
[14]
  GI50: 4.3 µM
  TGI: 28.8 µM
  CC50: > 100 µM
[15]
  GI50: 1.5 µM
  TGI: 7.7 µM
  CC50: 63.1 µM
[16]
  GI50: 3.1 µM
  TGI: 20.8 µM
  CC50: > 100 µM
[17]
  GI50: 4.9 µM
  TGI: 31.6 µM
[17]; read-out: LC50
  CC50: > 100 µM
[18]
  GI50: 3.9 µM
  TGI: 21.3 µM
  CC50: > 100 µM
[19]
  GI50: 2.4 µM
  TGI: 14.1 µM
  CC50: 42.6 µM
[20]
  GI50: 12.3 µM
  TGI: 26.9 µM
[20]; read-out: LC50
  CC50: 58.8 µM
[21]
  GI50: 2.6 µM
  TGI: 19.9 µM
  CC50: > 100 µM
[22]
  GI50: 4.9 µM
  TGI: 47.8 µM
  CC50: > 100 µM
[23]
  GI50: 2.5 µM
  TGI: 8.3 µM
  CC50: 30.9 µM
[24]
  GI50: 2.7 µM
  TGI: 10.9 µM
  CC50: 67.6 µM
[25]
  GI50: 3.2 µM
  TGI: 13.2 µM
  CC50: 36.7 µM
[26]
  GI50: 7.1 µM
  TGI: 27.5 µM
  CC50: 91.2 µM
[27]
  GI50: 7.1 µM
  TGI: 37.1 µM
  CC50: > 100 µM
[28]
  GI50: 2.1 µM
  TGI: > 100 µM
  CC50: > 100 µM
[29]
  GI50: 2.8 µM
  TGI: 11.2 µM
  CC50: > 100 µM
[30]
  GI50: 2.9 µM
  TGI: 10.7 µM
  CC50: 33.1 µM
[31]
  GI50: 4.7 µM
  TGI: 22.3 µM
  CC50: 83.2 µM
[32]
  GI50: 2.9 µM
  TGI: 25.1 µM
  CC50: > 100 µM
[33]
  GI50: 2.9 µM
  TGI: 21.8 µM
  CC50: > 100 µM
[34]
  GI50: 5 µM
  TGI: 33.8 µM
  CC50: > 100 µM
[35]
  GI50: 5.4 µM
  TGI: 46.7 µM
  CC50: > 100 µM
[36]
  GI50: 5 µM
  TGI: 29.5 µM
[36]; read-out: LC50
  CC50: > 100 µM
[37]
  GI50: 3.7 µM
  TGI: 20.4 µM
  CC50: 85.1 µM
